Test results as given in patent US9914910B2, “Methods of preserving and protecting pancreatic beta cells and treating or preventing diabetes by inhibiting NOX-1” (Eastern Virginia Medical School, priority 2013, dated 2018).

Tests used:
INS-1 cells [1] = assay: Caspase-3 assay (pro-caspase-3 cleavage) after PIC; type: cell-based, rat; conditions: INS-1, PIC 4 hours, up to
Protocol: (§1) A. Caspase-3 Assay: Pro-caspase-3 cleavage was measured using a caspase-3 Assay kit (BD Pharmigen, Franklin Lakes, N.J.) per the manufacturer's instructions; fluorescence being measured (SpectraMax, Molecular Devices, Sunnyvale, Calif.) at excitation 380 nm and emission 440 nm (INS-1) or 460 nm (βTC-3, mouse).

βTC-3 cells [2] = assay: Caspase-3 assay (pro-caspase-3 cleavage) after PIC; type: cell-based, mouse; conditions: βTC-3, PIC 4 hours, up to
Protocol: as §1

primary mouse islets [3] = assay: Caspase-3 assay (pro-caspase-3 cleavage) after PIC; type: cell-based; conditions: 4 hours, up to
Protocol: (§2) Human donor islets were obtained from integrated islet distribution project (http://iidp.coh.org) and cultured in CMRL media (Mediatech, Manassas, Va.). Mouse islets were freshly isolated from 8-week old male C57BL/6J mice (Jackson Laboratory, Bar Harbor, Me.) by common bile duct cannulation and collagenase digestion. Islets were hand picked prior to use.
as §1

beta cells = assay: Pro-caspase 3 cleavage after PIC, beta cell survival; type: cell-based; conditions: C1 100 nM, ML171 10 μM
Protocol: Loss of beta cell viability in response to inflammatory cytokines was assessed by measurement of caspase 3 activation and quantified microscopy. […] Measured by pro-caspase 3 cleavage (A) or quantified microscopy of YO-PRO-1 stained cells (B). […] Shown are RFU from fluorescent capase3 substrate, ##p<0.01 relative to control; *p<0.05; **p<0.01 relative to PIC (A) and Microscopic apoptotic index ###p<0.001 relative to control; ***p<0.001; **p<0.01 relative to PIC (B).

INS-1 cells [4] = assay: Apoptosis by YO-PRO-1 fluorescence microscopy after PIC; type: cell-based, rat; conditions: INS-1, PIC 24 hours, p<0.001
Protocol: (§3) B. Fluorescence microscopy: Stimulated cells or islets were washed in cold PBS, and incubated for 30 mins at 40 C with cold PBS containing 1 μg/mL propidium iodide and 0.1 μM YO-PRO-1 (Life Technologies). For cell lines, five randomly fields per well were analyzed. For islets, all islets (>1000 um2 in size) were analyzed. Densitometric fluorescent value for YO-PRO-1 (green channel) was normalized to background and expressed proportional to cell occupied area (phase contrast). Images captured across three channels with Axiophot (Zeiss, Jena, Germany) with Axiovision (Zeiss) image analysis.

βTC-3 cells [5] = assay: as above; type: cell-based, mouse; conditions: βTC-3, PIC 24 hours, p<0.001
Protocol: as §3

[6] = tested on: primary human donor islets; assay: as above; type: cell-based; conditions: 10 μM ML171
Protocol: as §2, §3

[7] = tested on: NOX-1 gene expression in INS-1 cells; assay: PIC-induced NOX-1 gene expression (RT-PCR); type: cell-based, rat; conditions: INS-1, PIC 24 hours
Protocol: (§4) Total RNA was isolated using the RNeasy Mini Kit (Qiagen, Valencia, Calif.) and cDNA prepared using MMLV reverse transcriptase (Life Technologies) and random hexamers (Life Technologies). Jump Start Taq polymerase (Life Technologies) was used in PCR reactions. […] RT-PCR reactions were performed in triplicate (CFX96 Bio-Rad, Hercules, Calif.). Taqman primers (Life Technologies) were also used. Data was normalized to the housekeeping gene GAPDH and analyzed using the 2-ΔΔCT method.

[8] = tested on: NOX-1 gene expression in primary human donor islets; assay: PIC-induced NOX-1 gene expression (RT-PCR); type: cell-based; conditions: 1 μM ML171
Protocol: as §4

[9] = tested on: NOX-1 protein in INS-1 cells; assay: NOX-1 protein expression (western blot); type: cell-based; conditions: Rattus norvegicus, INS1, 24 h; read-out: inhibition of PIC induction of NOX-1 protein
Protocol: (§5) Cells were then lysed (1× PBS, 1% Triton X-100, 1 mM PMSF, 1 mM Halt Protease Inhibitor Cocktail (Pierce, Rockford, Ill.), 1 mM NaVO4), and incubated on ice for 20 min. Cleared (14,000 rpm, 15 min, 4° C.) lysate was collected. Proteins separated on 10% Tris-glycine gels (Life Technologies) were transferred onto PDVF (Immobilon-FL, Millipore, Billerca, Mass.). Membranes were blocked in TBS/0.05% Tween (Sigma) plus 5% non-fat milk (Bio-Rad) for 1 hr at room temperature before incubation overnight at 40 in primary antibody with gentle shaking. The membrane was washed between antibody cycles four times for 5 min each in TBS/Tween (0.05%). Primary antibodies: 1:250 Anti-NOX-1 or 1:1000 β-actin 1 (Abcam, Cambridge, Mass.).
(§6) Signal detected with 1:2000 HRP-secondary antibody for 1 hour (GE Healthcare, Buckinghamshire, UK) SuperSignal Chemiluminescent Substrate (Thermo Scientific, Rockford, Ill.) on a ChemiDoc XRS System (Bio-Rad). Densitometry was determined using Image J (http://rsb-web.nih.gov/i/).

[10] = tested on: NOX-1 protein in βTC-3 cells; assay: NOX-1 protein expression (western blot); type: cell-based; conditions: Mus musculus, 24 h; read-out: inhibition of PIC induction of NOX-1 protein
Protocol: as §5, §6

INS-1 cells [11] = assay: Glucose-stimulated insulin secretion (GSIS) after PIC; type: cell-based, rat; conditions: INS-1, 1 mM vs 16 mM glucose, p<0.05
Protocol: (§7) Treated islets or cells then were washed with PBS and placed in 1 mL serum-free Kreb-Ringer buffer (115 mM NaCl, 24 mM NaHCO3, 5 mM KCl, 1 mM MgCl2, and 25 mM HEPES) for 1 hour at 370 C. Low (1 mM) or high (16 mM) glucose was added for […] for 30 min. Insulin levels in media were measured by ELISA (Mercodia, Winston Salem, N.C.) as per the manufacturer's instructions.
FIG. 4: Treatment of homogeneous rat beta cell line (INS-1) with pro-inflammatory cytokines (PIC) (TNFα, IL-1β, IFNγ) disrupts beta cell function measured by glucose-stimulated-insulin-secretion. Control (non cytokine-treated) cells respond to glucose elevation ([…]) by increasing insulin secretion. Insulin levels are plotted. In the presence of inflammatory cytokines (PIC) this response is lost and the dysfunctional cells ‘leak’ insulin. […] (*p<0.05, **p<0.01).

primary mouse islets [12] = assay: as above; type: cell-based; conditions: 10 μM ML171, 1 mM vs 16 mM glucose
Protocol: as §2, §7

[13] = tested on: MCP-1, IL-12p40, IL-12 p35, IFNγ gene expression in primary mouse islets; assay: Cytokine-induced target gene expression (real time PCR); type: cell-based; conditions: NCTT-1 100 nM, ML171 1 μM
Protocol: as §4
Data is quantitative real time PCR gene expression analysis from triplicate experiments performed in replicate. Fold induction in gene expression over control (non cytokine-treated) islets is graphed.

CC(=O)c1ccc2c(c1)Nc1ccccc1S2 [ML171, 2-acetylphenothiazine]
block of PIC-induced activation of caspase-3 (INS-1 cells [1]): up to 100%±3.4% | block of PIC-induced activation of caspase-3 (βTC-3 cells [2]): ≤ 97%±3.1% | block of PIC-induced activation of caspase-3 (primary mouse islets [3]; 1 μM): up to 100%±7% | block of PIC-induced activation of caspase-3 (primary mouse islets [3]; 10 μM): ≤ 100%±3% | inflammatory cytokine-induced cell death, pro-caspase 3 cleavage (beta cells): significantly protected | PIC-induced apoptosis (YO-PRO-1) (INS-1 cells [4]): apoptosis was significantly decreased | PIC-induced apoptosis (YO-PRO-1) (βTC-3 cells [5]): apoptosis was significantly decreased | reduction of beta-cell apoptosis induced by PICs [6]: 30%±3% | inhibition of PIC-induced expression of NOX-1 gene [7]: 33% | inhibition of PIC-induced expression of NOX-1 [8]: 50% | inhibition at 1 µM [9]: 100% | inhibition at 1 µM [10]: 100% | glucose-stimulated insulin secretion with PIC (INS-1 cells [11]): restoring the glucose-sensitive insulin response | glucose stimulated insulin response with PIC (primary mouse islets [12]): partially restored | induction of gene IFNγ by PIC [13]: attenuated | induction of gene IL-12 p35 by PIC [13]: attenuated | induction of gene IL-12p40 by PIC [13]: attenuated | induction of gene MCP-1 by PIC [13]: attenuated
